From patent publication US8349852B2, “Quinazolinone derivatives useful as vanilloid antagonists” (Novartis AG, priority 2009, dated 2013)

Target: human TRPV1 (Homo sapiens, UniProt Q8NER1)
Experiment: inhibition of low pH-, capsaicin-, anandamide- and NADA-stimulation of human TRPV1
Format: cell-based
Description: The compounds of formulae (I) and (Ia) and I(B) in crystal form B, and their pharmaceutically acceptable salts and, where possible, pharmaceutically acceptable acid addition salts, have beneficial pharmacological activity and, therefore, are useful as pharmaceuticals.

Sequence of human TRPV1 (Q8NER1 whole entry): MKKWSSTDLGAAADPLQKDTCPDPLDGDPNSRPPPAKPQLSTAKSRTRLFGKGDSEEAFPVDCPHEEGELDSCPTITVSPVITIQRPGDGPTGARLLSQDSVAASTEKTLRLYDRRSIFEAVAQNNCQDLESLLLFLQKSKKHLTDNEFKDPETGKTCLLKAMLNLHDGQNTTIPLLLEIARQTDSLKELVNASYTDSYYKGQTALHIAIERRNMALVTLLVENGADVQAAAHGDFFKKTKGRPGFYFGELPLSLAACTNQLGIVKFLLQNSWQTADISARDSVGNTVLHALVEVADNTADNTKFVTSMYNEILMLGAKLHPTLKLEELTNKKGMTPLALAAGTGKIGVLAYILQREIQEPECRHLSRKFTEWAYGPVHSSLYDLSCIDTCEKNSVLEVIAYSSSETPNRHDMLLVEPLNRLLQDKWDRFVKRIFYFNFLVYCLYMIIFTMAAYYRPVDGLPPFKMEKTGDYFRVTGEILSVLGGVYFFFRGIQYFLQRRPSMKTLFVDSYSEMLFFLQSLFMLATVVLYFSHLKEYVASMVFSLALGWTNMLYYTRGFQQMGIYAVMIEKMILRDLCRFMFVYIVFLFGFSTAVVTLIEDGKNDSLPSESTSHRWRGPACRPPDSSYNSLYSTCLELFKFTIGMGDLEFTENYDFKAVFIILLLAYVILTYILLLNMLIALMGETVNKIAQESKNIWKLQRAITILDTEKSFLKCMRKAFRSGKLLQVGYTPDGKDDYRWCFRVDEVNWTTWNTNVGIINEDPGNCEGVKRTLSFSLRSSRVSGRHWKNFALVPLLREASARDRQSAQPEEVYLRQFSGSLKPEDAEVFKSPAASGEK

CC(C)c1nc2cc(O)ccc2c(=O)n1-c1ccc(C#N)cc1 [Example 1, 4-(7-hydroxy-2-isopropyl-4-oxo-4H-quinazolin-3-yl)-benzonitrile crystal form B]
nature of antagonist activity at human TRPV1: non-competitive and reversible | IC50 (IC50, inhibition of NADA-stimulation of human TRPV1, stimulus: NADA): 27 nM | IC50 (IC50, inhibition of anandamide-stimulation of human TRPV1, stimulus: anandamide): 10 nM | IC50 (IC50, inhibition of capsaicin-stimulation of human TRPV1, stimulus: capsaicin): 12 nM | IC50 (IC50, inhibition of low pH-stimulation of human TRPV1, stimulus: low pH): 5 nM
